From ChEMBL document CHEMBL1201862, “PubChem BioAssay data set” (2004)
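1) Cells in 96-well plates. 2) Compound, 48 h, 5 concentrations. 3) Linear interpolation between surrounding doses. 4) Unreached endpoint = highest concentration. Here, GI50 denotes the concentration required for 50% inhibition of growth.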 Active and inactive are the calls of the source. Rule as the data show it: active = GI50 up to about 1.1 µM and inactive = higher.

What was measured:
Test in all cases: DTP human tumour cell line panel, 48 h
786-0 = tested on: 786-0
A549 = tested on: A549
ACHN = tested on: ACHN
COLO 205 = tested on: COLO 205
HOP-62 = tested on: HOP-62
MDA-MB-231 = tested on: MDA-MB-231
MDA-MB-435 = tested on: MDA-MB-435
OVCAR-5 = tested on: OVCAR-5
PC-3 = tested on: PC-3
RPMI-8226 = tested on: RPMI-8226
SF-268 = tested on: SF-268
SK-MEL-28 = tested on: SK-MEL-28
SK-MEL-2 = tested on: SK-MEL-2
SNB-75 = tested on: SNB-75
TK-10 = tested on: TK-10
UO-31 = tested on: UO-31
IGROV-1 = tested on: IGROV-1
KM12 = tested on: KM12
UACC-62 = tested on: UACC-62
RXF 393 = tested on: RXF 393

| SMILES | GI50 (786-0) | GI50 (A549) | GI50 (ACHN) | GI50 (COLO 205) | GI50 (HOP-62) | GI50 (MDA-MB-231) | GI50 (MDA-MB-435) | GI50 (OVCAR-5) | GI50 (PC-3) | GI50 (RPMI-8226) | GI50 (SF-268) | GI50 (SK-MEL-28) | GI50 (SK-MEL-2) | GI50 (SNB-75) | GI50 (TK-10) | GI50 (UO-31) | GI50 (IGROV-1) | GI50 (KM12) | GI50 (UACC-62) | GI50 (RXF 393) |
| --- | --- | --- | --- | --- | --- | --- | --- | --- | --- | --- | --- | --- | --- | --- | --- | --- | --- | --- | --- | --- |
| CC(C)SC(C)(NC(=O)C1C(C)(C)CCC1(C)C)C(=O)O (centres undefined) | > 100 µM (inactive) | > 100 µM (inactive) | > 100 µM (inactive) | > 100 µM (inactive) | > 100 µM (inactive) | > 100 µM (inactive) | > 100 µM (inactive) | > 100 µM (inactive) | > 100 µM (inactive) | > 100 µM (inactive) | > 100 µM (inactive) | > 100 µM (inactive) | > 100 µM (inactive) | > 100 µM (inactive) | > 100 µM (inactive) | > 100 µM (inactive) |  |  |  |  |
| O=C(NNS(=O)(=O)c1ccccc1)c1csc(NC(=S)NC2CCCCC2)n1 | 15.4 µM (inactive) | 35.2 µM (inactive) | 33.5 µM (inactive) | 19.3 µM (inactive) | 58.3 µM (inactive) | 22.8 µM (inactive) | 20.6 µM (inactive) | 52.1 µM (inactive) | 34.2 µM (inactive) | 44.2 µM (inactive) | 22 µM (inactive) |  | 22.3 µM (inactive) | 32.8 µM (inactive) | 35.6 µM (inactive) | 23.9 µM (inactive) | 26.5 µM (inactive) | 36.3 µM (inactive) | 23.7 µM (inactive) |  |
| Nc1ccc2nc(-c3cccc(Cl)c3)cc(O)c2c1 | 4.24 µM (inactive) | 6.15 µM (inactive) | 5.93 µM (inactive) | 4.81 µM (inactive) | 5.87 µM (inactive) | 26.5 µM (inactive) | 0.738 µM (active) | > 100 µM (inactive) | 2.47 µM (inactive) |  |  | 7.91 µM (inactive) |  | 2.15 µM (inactive) | 2.65 µM (inactive) |  | 29.3 µM (inactive) | 4.23 µM (inactive) | 3.14 µM (inactive) |  |
| Nc1nc(N)c2ncn(Cc3ccccc3CCl)c2n1 | > 100 µM (inactive) | > 100 µM (inactive) | > 100 µM (inactive) | > 100 µM (inactive) | > 100 µM (inactive) | > 100 µM (inactive) | > 100 µM (inactive) | > 100 µM (inactive) | > 100 µM (inactive) | > 100 µM (inactive) | > 100 µM (inactive) | > 100 µM (inactive) | > 100 µM (inactive) | > 100 µM (inactive) | > 100 µM (inactive) | > 100 µM (inactive) | > 100 µM (inactive) | > 100 µM (inactive) | > 100 µM (inactive) |  |
| COc1cc(/C=C2\N=C(c3ccccc3)N(c3ccc(C(=O)c4ccccc4)cc3N3C(=O)/C(=C/c4ccc(O)c(OC)c4)N=C3c3ccccc3)C2=O)ccc1O | 18.9 µM (inactive) | 11.4 µM (inactive) | 17.5 µM (inactive) | 17.9 µM (inactive) | 14.5 µM (inactive) | 12.9 µM (inactive) | 2.25 µM (inactive) | 32.4 µM (inactive) | 11.8 µM (inactive) | 8.51 µM (inactive) | 15.3 µM (inactive) | 21.2 µM (inactive) | 13.4 µM (inactive) | 18.8 µM (inactive) | 18.5 µM (inactive) | 13 µM (inactive) | 7.35 µM (inactive) | 8.73 µM (inactive) | 9.62 µM (inactive) |  |
| COc1ccc2c(c1)c(CC(=O)O)c(C)n2C(=O)c1ccc(Cl)cc1 | 75.3 µM (inactive) | > 100 µM (inactive) | > 100 µM (inactive) | > 100 µM (inactive) | 54.5 µM (inactive) | > 100 µM (inactive) | > 100 µM (inactive) | > 100 µM (inactive) | 39 µM (inactive) | 28.5 µM (inactive) | > 100 µM (inactive) | > 100 µM (inactive) | 60.3 µM (inactive) | 39.9 µM (inactive) | 36.6 µM (inactive) | 41.8 µM (inactive) | > 100 µM (inactive) | 60.8 µM (inactive) |  |  |
| O=C(/C=C/c1c[nH]c2ccccc12)c1ccccc1O | 12.5 µM (inactive) | 10.5 µM (inactive) | 12.6 µM (inactive) |  | 14.3 µM (inactive) | 3.18 µM (inactive) | 4.88 µM (inactive) | 13.6 µM (inactive) | 4.03 µM (inactive) | 9.27 µM (inactive) | 16.6 µM (inactive) | 19.2 µM (inactive) | 3.55 µM (inactive) | 11.6 µM (inactive) | 18.3 µM (inactive) | 2.82 µM (inactive) | 3.83 µM (inactive) | 11.3 µM (inactive) | 8.17 µM (inactive) |  |
| COC(=O)C1(Cc2cccc(Cl)c2)CCCCCCN1C(=O)c1ccccc1 (centres undefined) | 13.2 µM (inactive) | 14.5 µM (inactive) | 9.46 µM (inactive) | 15.5 µM (inactive) | 15.5 µM (inactive) | 13 µM (inactive) | 18.9 µM (inactive) | 15.8 µM (inactive) | 4.98 µM (inactive) | 6.7 µM (inactive) | 20.6 µM (inactive) | 14.9 µM (inactive) |  | 13 µM (inactive) | 12 µM (inactive) | 10.8 µM (inactive) | 19.1 µM (inactive) |  | 11.1 µM (inactive) |  |
| O=c1c(NO)c([N+](=O)[O-])cnn1-c1ccccc1 | 6.07 µM (inactive) | 18.5 µM (inactive) | 8.53 µM (inactive) | 3.62 µM (inactive) | 8.83 µM (inactive) |  | 1.88 µM (inactive) | 7.28 µM (inactive) | 1.55 µM (inactive) | 4.93 µM (inactive) | 12.5 µM (inactive) | 3.43 µM (inactive) | 14.9 µM (inactive) | 14.6 µM (inactive) | 18.4 µM (inactive) | 5.27 µM (inactive) | 21.1 µM (inactive) | 9.62 µM (inactive) | 4.2 µM (inactive) | 5.92 µM (inactive) |
| O=C(/C=C/c1ccccc1)c1cc(C(=O)/C=C/c2ccccc2)c(O)cc1O | > 100 µM (inactive) | > 100 µM (inactive) | 73.1 µM (inactive) | > 100 µM (inactive) | > 100 µM (inactive) |  | > 100 µM (inactive) | > 100 µM (inactive) | > 100 µM (inactive) | 65.6 µM (inactive) |  | 40.5 µM (inactive) | > 100 µM (inactive) |  | > 100 µM (inactive) | 41.3 µM (inactive) | > 100 µM (inactive) |  | 49.8 µM (inactive) |  |
| CCOP(=O)(C=C=C1CCC2[C@@H]3CCc4cc(OC)ccc4C3CC[C@]12C)OCC (some centres undefined) | 12.3 µM (inactive) | 4.07 µM (inactive) | 10.3 µM (inactive) | 10.5 µM (inactive) | 15.3 µM (inactive) |  | 12.4 µM (inactive) | 17 µM (inactive) | 3.92 µM (inactive) |  | 11.9 µM (inactive) | 10.6 µM (inactive) | 12.9 µM (inactive) | 12.7 µM (inactive) | 12.7 µM (inactive) | < 0.01 µM (active) | 11.4 µM (inactive) | 12.4 µM (inactive) | 3.89 µM (inactive) | 1.98 µM (inactive) |
| CC12ON=C(c3ccccc3)N1C=CN1C(c3ccccc3)=NOC12 (centres undefined) | > 100 µM (inactive) | > 100 µM (inactive) | > 100 µM (inactive) | 37.2 µM (inactive) | > 100 µM (inactive) | > 100 µM (inactive) |  | > 100 µM (inactive) | > 100 µM (inactive) |  | > 100 µM (inactive) |  |  | > 100 µM (inactive) | > 100 µM (inactive) | > 100 µM (inactive) | > 100 µM (inactive) | > 100 µM (inactive) | > 100 µM (inactive) | 64.9 µM (inactive) |
| CCc1c2c(cc3c1CC1(C3)Cc3cc4c(c(C(=O)OC)c3C1)CCCC4)CCCC2 (centres undefined) | 12.1 µM (inactive) | 29.7 µM (inactive) | > 100 µM (inactive) | > 100 µM (inactive) | > 100 µM (inactive) | > 100 µM (inactive) | > 100 µM (inactive) | > 100 µM (inactive) | > 100 µM (inactive) | > 100 µM (inactive) |  |  | > 100 µM (inactive) |  | > 100 µM (inactive) | > 100 µM (inactive) | > 100 µM (inactive) | > 100 µM (inactive) | 18.5 µM (inactive) | 59.4 µM (inactive) |
| O=c1cc(N2CCCC2)[nH]c(=O)n1Cc1ccccc1 | > 100 µM (inactive) | > 100 µM (inactive) | > 100 µM (inactive) | > 100 µM (inactive) | > 100 µM (inactive) | > 100 µM (inactive) | > 100 µM (inactive) | > 100 µM (inactive) | > 100 µM (inactive) | > 100 µM (inactive) |  | > 100 µM (inactive) | > 100 µM (inactive) | > 100 µM (inactive) | > 100 µM (inactive) |  | > 100 µM (inactive) | > 100 µM (inactive) |  |  |
| O/N=C1\C/C(=N\O)c2c(Br)sc(Br)c21 | 36 µM (inactive) | 26.2 µM (inactive) | > 100 µM (inactive) | 70.8 µM (inactive) | 32.1 µM (inactive) | 77.1 µM (inactive) | 41.8 µM (inactive) |  |  |  | 17.4 µM (inactive) | 24.7 µM (inactive) | 43.4 µM (inactive) | 17.3 µM (inactive) | 38.5 µM (inactive) | 20.6 µM (inactive) | 30.4 µM (inactive) | 32.6 µM (inactive) | 91.2 µM (inactive) |  |
| NS(=O)(=O)c1cc(S(N)(=O)=O)c(NC(=O)Nc2ccc(Cl)c(Cl)c2)c(Cl)c1Cl | > 100 µM (inactive) | > 100 µM (inactive) | > 100 µM (inactive) | 40.6 µM (inactive) |  | > 100 µM (inactive) | > 100 µM (inactive) | > 100 µM (inactive) | > 100 µM (inactive) | > 100 µM (inactive) | > 100 µM (inactive) | > 100 µM (inactive) | > 100 µM (inactive) |  | > 100 µM (inactive) | > 100 µM (inactive) | > 100 µM (inactive) | > 100 µM (inactive) | > 100 µM (inactive) |  |
